Source: patent US12091405B2, “Substituted pyrazole compounds as indoleamine 2,3-dioxygenase inhibitors” (Merck Sharp & Dohme LLC, priority 2018, dated 2024)

Experiments:
[1] = biological target: T1, IDO1 (Homo sapiens, UniProt P14902); test: IDO1 Human Whole Blood Assay; type: cell-based; set-up: Human whole blood was drawn in sodium heparin coated tubes from healthy internal donors; from tissue; host or cells: human whole blood from healthy donors, stimulated with LPS and IFNγ; settings: LPS and IFNγ 100 ng/mL, overnight (18 h), kynurenine by LC/MS/MS
T1 sequence (P14902 whole entry): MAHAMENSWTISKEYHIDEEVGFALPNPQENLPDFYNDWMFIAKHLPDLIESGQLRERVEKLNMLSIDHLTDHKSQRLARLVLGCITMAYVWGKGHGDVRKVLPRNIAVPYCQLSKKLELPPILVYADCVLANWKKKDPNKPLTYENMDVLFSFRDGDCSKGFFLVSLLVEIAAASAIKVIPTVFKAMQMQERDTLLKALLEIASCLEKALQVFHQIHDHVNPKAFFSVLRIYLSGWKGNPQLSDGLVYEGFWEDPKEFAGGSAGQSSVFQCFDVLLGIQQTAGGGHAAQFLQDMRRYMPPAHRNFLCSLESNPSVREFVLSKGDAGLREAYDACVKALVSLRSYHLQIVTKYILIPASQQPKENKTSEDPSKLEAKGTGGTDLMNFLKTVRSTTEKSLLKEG
Protocol: IDO1 Human Whole Blood Assay
Compounds to be tested were serially diluted in ten 3-fold steps in DMSO starting from 10 mM. 3 μL of compound dilutions or DMSO alone were then dispensed from the dilution plate into a polypropylene 96-well assay plate containing 97 μL of RPMI medium using an Echo 555 acoustic liquid handler (Labcyte). LPS and IFNγ was prepared in RPMI medium to a 10× of final conc. (1000 ng/mL), final concentration is 100 ng/mL.
Human whole blood was drawn in sodium heparin coated tubes from healthy internal donors. 240 μL of blood was transferred to each of the wells of a v-bottom 96 well plate. 30 μL of compound was transferred from intermediate dilution plate, and incubated for 15 min. 30 μL from stimulants was then transferred to blood and mixed thoroughly. Plate was covered with breathable membrane and incubated at 37° C. for overnight (18 h).
On day 2, isotope labeled standard solutions of kynurenine and tryptophan was made in water at 10× concentration and 30 μL was added to the blood at 3 μM final concentration. The assay plates were centrifuged at 300×G for 10 min with no brake to separate plasma from red blood cells. 60 μL of plasma samples was removed without disturbing red blood cells. Plasma was diluted with RPMI in 1:1 ratio and proteins were precipitated out with two volumes of Acetonitrile. The plates were centrifuged at 4000×G for 60 min. 20 μL of supernatant was carefully transferred to a 384 well plate containing 40 μL of 0.1% formic acid in water and analyzed by LC/MS/MS.
LC/MS/MS analyses were performed using Thermo Fisher's LX4-TSQ Quantum Ultra system. This system consists of four Agilent binary high-performance liquid chromatography (HPLC) pumps and a TSQ Quantum Ultra triple quadrupole MS/MS instrument. For each sample, 5 μL were injected onto an Atlantis T3 column (2.1 mm×150 mm, 3 μm particle size) from Waters. The mobile phase gradient pumped at 0.8 mL/min was used to elute the analytes from the column at 25 EC. The elution started at 0% B increasing linearly to 25% B at 6.5 min, holding at 25% for 1 min, re-equilibrating to 10 min. Mobile phase A consisted of 0.1% formic acid in water. Mobile phase B consisted of 0.1% of formic acid in acetonitrile. Data were acquired in positive mode using a HESI interface. The operational parameters for the TSQ Quantum Ultra instrument were a spray voltage of 4000 V, capillary temperature of 380° C., vaporizer temperature 400° C., shealth gas 60 arbitrary units, Aux gas 20 arbitrary units, tube lens 85 and collision gas 1.2 mTorr. SRM chromatograms of kynurenine (Qi: 209.2>Q3:94.0) and internal standard (Qi: 215.3>Q3:98.2) were collected for 90 sec. The peak area was integrated by Xcalibur Quan software. The ratios between the kynurenine generated in the reaction and 2D6-Kynurenine spiked-in internal standard were used to generate percentage inhibition and IC50 values. Compounds were titrated and IC50's were calculated by 4 parameter sigmoidal curve fitting formula.
The biological activity data of selective compounds using the IDO1 human whole blood assay described above are summarized in the table below.

[2] = biological target: T1, IDO1; test: IDO1 Cellular Assay in HeLa Cells Stimulated with IFNγ; type: cell-based; settings: IFNγ 100 ng/mL, 300 uM L-tryptophan, about 48 hours, fluorescence readout, read-out: IDO1 HELA Cell Assay, IC50

Row | Structure (SMILES) | IC50 [1] | IC50 [2]
1 | Cc1cccc(C2CCN(C(=O)Cn3nc(C(=O)N4CCC(O)CC4)c4c3CCC4)CC2(F)F)c1C (single isomer, unassigned) [Example 14, 1-(4-(2,3-dimethylphenyl)-3,3-difluoropiperidin-1-yl)-2-(3-(4-hydroxypiperidine-1-carbonyl)-5,6-dihydrocyclopenta[c]pyrazol-1(4H)-yl)ethanone] | 1390 nM | 3.4 nM
2 | Cc1cccc(C2CCN(C(=O)Cn3nc(C(=O)N4CC[C@H](O)[C@H](F)C4)c4c3CCC4)CC2)c1C (single isomer, unassigned) [Example 61, 1-(4-(2,3-dimethylphenyl)piperidin-1-yl)-2-(3-((3R,4S or 3S, 4R)-3-fluoro-4-hydroxypiperidine-1-carbonyl)-5,6-dihydrocyclopenta[c]pyrazol-1(4H)-yl)ethanone] | 545 nM | 3.7 nM
3 | Cc1cccc(C2(F)CCN(C(=O)Cn3nc(C(=O)N4C[C@@H](C)O[C@@H](C)C4)c4c3CCC4)CC2)c1C [Example 7, 2-(3-((2R,6S)-2,6-dimethylmorpholine-4-carbonyl)-5,6-dihydrocyclopenta[c]pyrazol-1(4H)-yl)-1-(4-(2,3-dimethylphenyl)-4-fluoropiperidin-1-yl)ethanone] | 1210 nM | 3.2 nM
4 | Cc1cccc(C2(F)CCN(C(=O)Cn3nc(C(=O)N4CCC(O)CC4)c4c3CCC4)CC2)c1C [Example 9, 1-(4-(2,3-dimethylphenyl)-4-fluoropiperidin-1-yl)-2-(3-(4-hydroxypiperidine-1-carbonyl)-5,6-dihydrocyclopenta[c]pyrazol-1(4H)-yl)ethanone] | 3370 nM | 11.1 nM
5 | Cc1c(Cl)cccc1C1CCN(C(=O)Cn2nc(C(=O)N3CCN(C(=O)CO)CC3)c3c2C[C@H]2C[C@@H]32)CC1 [Example 17, 1-(4-(3-chloro-2-methylphenyl)piperidin-1-yl)-2-((3bR,4aR)-3-(4-(2-hydroxyacetyl)piperazine-1-carbonyl)-3b,4,4a,5-tetrahydro-1H-cyclopropa[3,4]cyclopenta[1,2-c]pyrazol-1-yl)ethanone] | 59.6 nM | 1 nM
6 | Cc1cccc(C2CCN(C(=O)Cn3nc(C(=O)N4CCN(C(=O)CO)CC4)c4c3C[C@H]3C[C@@H]43)CC2)c1C [Example 18, 1-[4-(2,3-dimethylphenyl)piperidin-1-yl]-2-{(3bR,4aR)-3-[4-(hydroxyacetyl)piperazine-1-carbonyl]-3b,4,4a,5-tetrahydro-1H-cyclopropa[3,4]cyclopenta[1,2-c]pyrazol-1-yl}ethan-1-one] | 58.9 nM | 2.3 nM
7 | Cc1cccc(C2CCN(C(=O)Cn3nc(C(=O)N4CC[C@@H](O)[C@H](C)C4)c4c3C[C@H]3C[C@@H]43)CC2)c1C [Example 19, 1-[4-(2,3-dimethylphenyl)piperidin-1-yl]-2-{(3bR,4aR)-3-[(3R,4R)-4-hydroxy-3-methylpiperidine-1-carbonyl]-3b,4,4a,5-tetrahydro-1H-cyclopropa[3,4]cyclopenta[1,2-c]pyrazol-1-yl}ethan-1-one] | 219 nM | 0.9 nM
8 | Cc1cccc(C2CCN(C(=O)Cn3nc(C(=O)N4CC[C@H](O)[C@H](C)C4)c4c3C[C@H]3C[C@@H]43)CC2)c1C [Example 20, 1-[4-(2,3-dimethylphenyl)piperidin-1-yl]-2-{(3bR,4aR)-3-[(3R,4S)-4-hydroxy-3-methylpiperidine-1-carbonyl]-3b,4,4a,5-tetrahydro-1H-cyclopropa[3,4]cyclopenta[1,2-c]pyrazol-1-yl}ethan-1-one] | 53.3 nM | 0.9 nM
9 | Cc1cccc(C2CCN(C(=O)Cn3nc(C(=O)N4CC[C@H](O)[C@@H](C)C4)c4c3C[C@H]3C[C@@H]43)CC2)c1C [Example 21, 1-[4-(2,3-dimethylphenyl)piperidin-1-yl]-2-{(3bR,4aR)-3-[(3S,4S)-4-hydroxy-3-methylpiperidine-1-carbonyl]-3b,4,4a,5-tetrahydro-1H-cyclopropa[3,4]cyclopenta[1,2-c]pyrazol-1-yl}ethan-1-one] | 328 nM | 0.9 nM
10 | Cc1cccc(C2CCN(C(=O)Cn3nc(C(=O)N4CC[C@@H](O)[C@@H](C)C4)c4c3C[C@H]3C[C@@H]43)CC2)c1C [Example 22, 1-[4-(2,3-dimethylphenyl)piperidin-1-yl]-2-{(3bR,4aR)-3-[(3S,4R)-4-hydroxy-3-methylpiperidine-1-carbonyl]-3b,4,4a,5-tetrahydro-1H-cyclopropa[3,4]cyclopenta[1,2-c]pyrazol-1-yl}ethan-1-one] | 69.1 nM | 1.1 nM
11 | Cc1cccc(C2CCN(C(=O)Cn3nc(C(=O)N4CC[C@@H](O)[C@@H](F)C4)c4c3C[C@H]3C[C@@H]43)CC2)c1C [Example 25, 1-[4-(2,3-dimethylphenyl)piperidin-1-yl]-2-{(3bR,4aR)-3-[(3S,4R)-3-fluoro-4-hydroxypiperidine-1-carbonyl]-3b,4,4a,5-tetrahydro-1H-cyclopropa[3,4]cyclopenta[1,2-c]pyrazol-1-yl}ethan-1-one] | 192 nM | 1.6 nM
12 | Cc1cccc(C2CCN(C(=O)Cn3nc(C(=O)N4CC[C@H](O)[C@H](F)C4)c4c3C[C@H]3C[C@@H]43)CC2)c1C [Example 26, 1-[4-(2,3-dimethylphenyl)piperidin-1-yl]-2-{(3bR,4aR)-3-[(3R,4S)-3-fluoro-4-hydroxypiperidine-1-carbonyl]-3b,4,4a,5-tetrahydro-1H-cyclopropa[3,4]cyclopenta[1,2-c]pyrazol-1-yl}ethan-1-one] | 258 nM | 1.8 nM
13 | Cc1cccc(C2CCN(C(=O)Cn3nc(C(=O)N4CCC(O)(CF)CC4)c4c3CCC4)CC2)c1C [Example 31, 1-[4-(2,3-dimethylphenyl)-1-piperidyl]-2-[3-[4-(fluoromethyl)-4-hydroxy-piperidine-1-carbonyl]-5,6-dihydro-4H-cyclopenta[c]pyrazol-1-yl]ethanone] | 87.6 nM | 5.1 nM
14 | Cc1cccc(C2CCN(C(=O)Cn3nc(C(=O)N4CC[C@H](O)[C@@H](F)C4)c4c3CCCC4)CC2)c1C [Example 32, 1-(4-(2,3-dimethylphenyl)piperidin-1-yl)-2-(3-((3S,4S)-3-fluoro-4-hydroxypiperidine-1-carbonyl)-4,5,6,7-tetrahydro-1H-indazol-1-yl) ethanone] | 83.7 nM | 0.8 nM
15 | Cc1cccc(C2CCN(C(=O)Cn3nc(C(=O)N4CCC(OCCO)CC4)c4c3CCC4)CC2)c1C [Example 33, 1-(4-(2,3-dimethylphenyl)piperidin-1-yl)-2-(3-(4-(2-hydroxyethoxy)piperidine-1-carbonyl)-5,6-dihydrocyclopenta[c]pyrazol-1(4H)-yl) ethanone] | 30.9 nM | 1.1 nM
16 | Cc1cccc(C2CCN(C(=O)Cn3nc(C(=O)N4CC[C@@H](O)[C@@H](F)C4)c4c3CCCC4)CC2)c1C [Example 35, 1-(4-(2,3-dimethylphenyl)piperidin-1-yl)-2-(3-((3S,4R)-3-fluoro-4-hydroxypiperidine-1-carbonyl)-4,5,6,7-tetrahydro-1H-indazol-1-yl) ethanone] | 221 nM | 1.3 nM
17 | Cc1cccc(C2CCN(C(=O)Cn3nc(C(=O)N4CCC(O)(CF)CC4)c4c3CCCC4)CC2)c1C [Example 36, 1-(4-(2,3-dimethylphenyl)piperidin-1-yl)-2-(3-(4-(fluoromethyl)-4-hydroxypiperidine-1-carbonyl)-4,5,6,7-tetrahydro-1H-indazol-1-yl) ethanone] | 50.8 nM | 1.6 nM
